In article PMC3958853, “Characterization and Antioxidant Properties of Six Algerian Propolis Extracts: Ethyl Acetate Extracts Inhibit Myeloperoxidase Activity” (International Journal of Molecular Sciences, 2014):
Several values for one entry are separate records, joined by “and”; a condition that tells them apart may be missing. Equal entries are not always repeated.

target: T1, recombinant MPO (Homo sapiens, UniProt P05164); experiment: Myeloperoxidase inhibition assay (taurine chloramine); format: biochemical; conditions: pure compounds, read-out: IC50 (μM) ± SD for MPO
T1 construct: made in house
T1 sequence (P05164 49-745): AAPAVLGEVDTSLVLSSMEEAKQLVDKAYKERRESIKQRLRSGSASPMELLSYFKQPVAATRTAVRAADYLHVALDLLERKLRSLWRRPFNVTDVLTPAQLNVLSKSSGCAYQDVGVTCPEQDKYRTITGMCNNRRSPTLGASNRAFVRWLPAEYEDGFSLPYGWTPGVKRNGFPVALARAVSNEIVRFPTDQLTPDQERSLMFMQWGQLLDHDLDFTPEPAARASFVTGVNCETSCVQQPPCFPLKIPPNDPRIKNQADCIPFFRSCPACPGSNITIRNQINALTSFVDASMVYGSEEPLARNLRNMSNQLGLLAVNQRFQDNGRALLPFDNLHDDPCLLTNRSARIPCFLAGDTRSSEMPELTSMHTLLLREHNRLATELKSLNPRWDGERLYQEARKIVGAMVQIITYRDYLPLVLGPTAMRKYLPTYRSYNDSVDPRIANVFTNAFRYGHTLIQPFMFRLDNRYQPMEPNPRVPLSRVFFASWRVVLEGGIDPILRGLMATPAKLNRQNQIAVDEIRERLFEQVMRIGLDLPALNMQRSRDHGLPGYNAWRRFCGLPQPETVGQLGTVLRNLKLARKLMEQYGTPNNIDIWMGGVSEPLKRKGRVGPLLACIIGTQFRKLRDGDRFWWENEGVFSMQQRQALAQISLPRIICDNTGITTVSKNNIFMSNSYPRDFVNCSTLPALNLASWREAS
Experimental: The recombinant MPO was produced as previously described Moguilevsky et al. and each batch solution was characterized by its protein concentration (mg/mL), its activity (U/mL), and its specific activity (U/mg). The chlorination activity was determined according to Hewson and Hager, (1979). Human plasma served for the isolation of LDL by ultracentrifugation according to Havel et al. (1955). Before oxidation, the LDL fraction (1.019 < d < 1.067 g/mL) was desalted by two consecutive passages through PD10 gel-filtration columns (Amersham Biosciences, Hoevelaken, The Netherlands) using PBS buffer. The different steps were carried out in the dark, and the protein concentration was measured by the Lowry assay for both MPO and LDL [57].
The assay was based on the production of taurine chloramine by the MPO/H2O2/Cl^− system which can be determined by means of 5-thio-2-nitrobenzoic acid (TNB) in the presence of a selected inhibitor at defined concentration. The reaction mixture contained the following reagents in a final volume of 200 μL:pH 7.4 phosphate buffer (10 mM PO4^3−/300 mM NaCl), taurine (15 mM), extraction solutions of propolis, and the fixed amount of the recombinant MPO (6 μL of MPO batch solution diluted 2.5 times, 40 nM). When necessary, the volume was adjusted with water. This mixture was incubated at 37 °C and the reaction initiated with 10.0 μL of H2O2 (100 μM). After 5 min, the reaction was stopped by the addition of 10 μL of catalase (8 U/μL). To determine the amount of taurine chloramines produced, 50 μL of 1.35 mM solution of TNB were added and the volume adjusted to 300 μL with water. Then, the absorbance of the solutions was measured at 412 nm with a microplate reader and the curve of the absorbance as a function of the inhibitor concentration was plotted. To remove the influence of HOCl scavenging carried out by the extracts, the same procedure of MPO inhibition assay was done but with addition of 6 μL of HOCl (60 μM) instead of the solution of MPO and H2O2.

IC50	Compound
9 ± 2 µM	COc1ccc(-c2cc(=O)c3c(O)cc(O)cc3o2)cc1 [Acacetin]
> 10 µM	O=C(O)/C=C/c1ccc(O)c(O)c1 [Caffeic acid]
8 ± 2 µM	O=c1cc(-c2ccccc2)oc2cc(O)cc(O)c12 [Chrysin]
9 ± 4 µM	O=C(O)/C=C/c1ccccc1 [Cinnamic acid]
6 ± 3 µM	COc1cc(/C=C/C(=O)O)ccc1O [Ferulic acid]
> 10 µM	O=c1c(O)c(-c2ccccc2)oc2cc(O)cc(O)c12 [Galangin]
4.1 µM and 4 µM	O=c1c(O)c(-c2ccc(O)cc2)oc2cc(O)cc(O)c12 [Kaempferol]
> 10 µM	CC(C)c1c(O)ccc2c1CC[C@H]1C(C)(C)CCC[C@]21C [Totarol]

Compound	IC50
O=c1c(-c2ccc(O)cc2)coc2cc(O)cc(O)c12 [Genistein]	> 10 µM

target: T1, recombinant MPO; experiment: not given; conditions: stated among literature reports, no reference given; cited from earlier work

Compound	IC50
O=c1c(O)c(-c2ccc(O)c(O)c2)oc2cc(O)cc(O)c12 [Quercetin]	~5 µM
